Assay results taken from US4049660A, “N-substituted derivatives of 4 (N-piperazinylmethyl) spiro dibenzocycloheptadi- (or tri-) ene-5, 2-dioxolane (1,3) their method of preparation and their application in therapeutics” (Delalande S.A., priority 1971, dated 1977).
Like-named read-outs stand apart in the source and are kept apart here.

Columns and labels:
[1] = tested on: lethal effect of yohimbine; test: Anti-depressive: potentialization of lethal effect of yohimbine; assay type: in vivo; conditions: at 100 mg/kg/PO, result in words
Description: (§1) In this regard, the compounds of formula I differ unexpectedly from the compounds of U.S. Pat. No. 3,726,900, as shown by comparative testing.
(§2) The anti-depressive properties of additional analog compounds were tested by the same tests. In these tests, the comparison compounds had the formula [drawing 28] The specific compounds tested and the test results are indicated in Table XIII.

[2] = Acute toxicity / mortality, oral, mice; assay type: in vivo; conditions: mouse, in vivo; for mortality: read-out: Percentage of mortality with mice; for LD50: oral
From the text: As is shown by the preceding results and by those given in Table XIV below, the difference between pharmacologically active doses and lethal doses is sufficiently great to allow the use of compounds of formula (I) in therapeutics.

[3] = tested on: isolated duodenum of a rat (barium chloride); test: Spasmolytic: contraction by barium chloride of isolated duodenum of a rat; conditions: for Spasmolytic activity: relative to papaverine as the standard
Description: Compounds of formula I, introduced in the survival medium, are capable of opposing the contacting action of barium chloride on the isolated duodenum of a rat. This activity is determined either by taking papaverine as the standard or by calculating the DE50 of the compound tested.

arterial pressure = test: Hypotensive: arterial pressure of anaesthetized rat; assay type: in vivo; conditions: 2 mg/kg/IV
From the text: Administered intravenously to an anaesthetized rat, the compounds of formula (I) cause a lowering of arterial pressure.

[4] = tested on: painful stretchings following intraperitoneal injection of acetic acid; test: Analgesic: painful stretchings following intraperitoneal acetic acid in mouse; assay type: in vivo; conditions: 100 mg/kg/PO, read-out: Percentage reduction in the number of painful stretchings
From the text: The compounds of formula (I) administered orally to a mouse are capable of reducing the number of painful stretchings following the intraperitoneal injection of acetic acid.

[5] = tested on: isolated tied uterus (serotonine); test: Antiserotonine: contractions of the isolated tied uterus provoked by serotonine; conditions: in vitro
From the text: (§3) For purposes of comparison, compounds of the formula (I) were compared, as to their antiserotonine properties, with a respresentative sampling of compounds disclosed in U.S. Pat. No. 3,726,900. The comparison compounds tested have the formula [drawing 23]

[6] = tested on: cough caused by stimulation of the upper laryngeal nerve; test: Anti-cough: cough caused by stimulation of the upper laryngeal nerve in an anaesthetized cat; assay type: in vivo
[7] = tested on: ptosis caused by reserpine; test: Anti-depressive: antagonism against ptosis caused by intravenous reserpine; assay type: in vivo
Description: as §1, §2

[8] = tested on: bronchoconstrictions provoked by serotonine; test: Antiserotonine: bronchoconstrictions provoked by intravenous serotonine in guinea pigs (Konzett and Rossler test); assay type: in vivo; conditions: Cavia porcellus, serotonine bronchoconstriction, read-out: Test of Konzett and Rossler DE50
From the text: as §3

[9] = tested on: isolated fundus of rats (serotonine); test: Antiserotonine: contractions of the isolated fundus of rats provoked by serotonine; conditions: in vitro
From the text: as §3

[10] = tested on: ventricular fibrillations caused by inhaling chloroform; test: Antiarythmic: ventricular fibrillations caused by inhaling chloroform in mouse; assay type: in vivo; conditions: ip, intraperitoneal, read-out: Antagonism to fibrillations caused by chloroform with a mouse, DE50
From the text: Administered intraperitoneally, the compounds of formula (I) are able to protect the mouse against ventricular fibrillations caused by inhaling chloroform.

urinary elimination = test: Diuretic: volume of urine in mouse; assay type: in vivo; conditions: 4 hours, versus controls, read-out: Percentage increase in urinary elimination; for change in vivo at 12.5 mg/kg: 12.5 mg/kg/PO
Description: The compounds of formula (I) administered orally to a mouse simultaneously with a volume of 1 ml of sodium chloride isotonic solute per 25 g of body weight are able to cause an increase of the volume of urine given compared with controls, this volume being measured for the 4 hours following administration.

[11] = tested on: isolated ileum of a guinea pig (histamine); test: Antihistamine: contraction by histamine of isolated ileum of a guinea pig
Description: The compounds of formula (I) introduced in the survival medium are able to oppose the contracting action of histamine on the isolated ileum of a guinea pig. This activity is calculated by the DE50 of the tested compounds.

[12] = tested on: local edema caused by carraghenine; test: Antiinflammatory: local plantar edema caused by carraghenine in rat; assay type: in vivo; conditions: 100 mg/kg/PO
From the text: These properties bring about a reduction of the local edema, caused by injecting a rat under the plantar with a phlogogenic agent such as carraghenine, following oral administration of compounds of formula (I).

[13] = mice, Table XI, read-out: LD50 (mice)
[14] = at 50 mg/kg/PO, result in words

Row | Structure (SMILES) | Potentialization of lethal effect of yohimbine [1] | LD50 [2, 13] | Spasmolytic activity [3] | Reduction of arterial pressure, duration (arterial pressure) | Reduction of arterial pressure, intensity (arterial pressure) | inhibition in vivo at 100 mg/kg [4] | Antagonisms against contractions of tied uterus, DE50 [5] | Antagonism against ptosis caused by reserpine ([7]; at 100 mg/kg/PO) | ED50 [8] | ED50 [10] | DE50 (spasmolytic) [3] | Antihistamine activity DE50 [11] | further results
1 | CC(C)NC(=O)CN1CCN(CC2COC3(O2)c2ccccc2CCc2ccccc23)CC1 (stereo not shown) [compound 70347] | Inactive | 1200 mg/kg | 1.5 × papaverine | > 30 mm | 50% | 70% | 0.02 µg/mL | Inactive | 0.5 mg/kg | – | – | – | mortality ([2]; 1200 mg/kg/PO): ~50%; Reduction of cough, duration ([6]; 1 mg/kg/IV): 20 mm; Reduction of cough, intensity ([6]; 1 mg/kg/IV): 80%
2 | O=C(CN1CCN(CC2COC3(O2)c2ccccc2CCc2ccccc23)CC1)N1CCOCC1 (stereo not shown) [compound 70357] | Inactive | 1300 mg/kg | 1.5 × papaverine | – | – | – | 0.005 µg/mL | Inactive | 0.005 mg/kg | – | – | – | mortality ([2]; 1300 mg/kg/PO): ~50%; Reduction of cough, duration ([6]; 2 mg/kg/IV): 20 mm; Reduction of cough, intensity ([6]; 2 mg/kg/IV): 100%; Antagonisms against contractions of fundus of rat, DE50 [9]: 0.54 µg/mL
3 | CCOC(=O)CN1CCN(CC2COC3(O2)c2ccccc2CCc2ccccc23)CC1 (stereo not shown) [compound 70365] | Inactive | 1250 mg/kg | 3 × papaverine | – | – | 75% | – | Inactive | 0.6 mg/kg | – | – | – | mortality ([2]; 1250 mg/kg/PO): ~50%
4 | c1ccc(C(c2ccccc2)N2CCN(CC3COC4(O3)c3ccccc3CCc3ccccc34)CC2)cc1 (stereo not shown) [compound 70374] | Inactive | – | – | 20 mm | 35% | – | – | Inactive | – | – | – | – | mortality ([2]; 2000 mg/kg/PO): 0%; LD50 ([2]; Table XII, read-out: LD50): > 2000 mg/kg
5 | OCC(O)CN1CCN(CC2COC3(O2)c2ccccc2CCc2ccccc23)CC1 (stereo not shown) [compound 70405, 4'-N'-(2",3"-dihydroxy "-propyl)N-piperazinyl methyl spiro dibenzo (a,d) cycloheptadiene-5:2' dioxolane (1',3') dimaleate] | – | – | – | > 60 mm | 40% | – | – | – | – | – | – | – | mortality ([2]; 1600 mg/kg/PO): ~50%; Reduction of cough, duration ([6]; 100 mg/kg/ID): 60 mm; Reduction of cough, intensity ([6]; 100 mg/kg/ID): 100%
6 | O=C(CN1CCN(CC2COC3(O2)c2ccccc2C=Cc2ccccc23)CC1)N1CCOCC1 (stereo not shown) [compound 71564] | – | 3500 mg/kg | – | – | – | – | 0.001 µg/mL | – | 0.05 mg/kg | 200 mg/kg | 2.50 µg/mL | – | mortality ([2]; 3500 mg/kg/PO): ~50%; change in vivo at 12.5 mg/kg (urinary elimination): 50%; Antagonisms against contractions of fundus of rat, DE50 [9]: 0.74 µg/mL
7 | CC(C)NC(=O)CN1CCN(CC2COC3(O2)c2ccccc2C=Cc2ccccc23)CC1 (stereo not shown) [compound 72134] | – | 1200 mg/kg | – | – | – | – | – | – | – | 65 mg/kg | – | 1 µg/mL | mortality ([2]; 1200 mg/kg/PO): ~50%; change in vivo at 50 mg/kg (urinary elimination; 50 mg/kg/PO): 55%; Antagonism against ptosis caused by reserpine [7, 14]: Inactive
8 | O=C(CN1CCN(CC2COC3(O2)c2ccccc2C=Cc2ccccc23)CC1)N1CCCCCC1 (stereo not shown) [compound 72176] | – | – | – | – | – | – | – | – | – | 100 mg/kg | 3.50 µg/mL | 0.5 µg/mL | mortality ([2]; 3400 mg/kg/PO): ~50%
9 | CNC(=O)CN1CCN(CC2COC3(O2)c2ccccc2C=Cc2ccccc23)CC1 (stereo not shown) [compound 72188] | – | 1100 mg/kg | – | – | – | 60% | – | – | 0.25 mg/kg | 38 mg/kg | – | 1 µg/mL | mortality ([2]; 1100 mg/kg/PO): ~50%; change in vivo at 25 mg/kg (urinary elimination; 25 mg/kg/PO): 40%; Antagonism against ptosis caused by reserpine [7, 14]: Inactive
10 | OCC(O)CN1CCN(CC2COC3(O2)c2ccccc2C=Cc2ccccc23)CC1 (stereo not shown) [compound 72196] | – | 1100 mg/kg | – | – | – | 45% | – | – | – | – | 0.25 µg/mL | 1 µg/mL | mortality ([2]; 1100 mg/kg/PO): ~50%; change in vivo at 12.5 mg/kg (urinary elimination): 40%; Percentage reduction of the edema [12]: 70%
